Data set [1] relates to MDA-MB-231 breast carcinoma cells. The data set is described as follows: In vivo tumor cell proliferation-to-apoptosis ratio (Ki67/TUNEL), MDA-MB-231 derived tumors. The following applies: MDA-MB-231 treated before injection into mouse. From the text:
(§1) (A) In vivo tumor formation in a mouse injected with MDA-MB-231 cells pre-exposed for 3 days to either a control matrix (Matrigel) or a matrix conditioned by hESCs (H9 CMTX) (n=10) (B) C81-61 cells, transfected with either an empty vector or a Nodal expression construct (n=5), and (C) MDA-MB-231 cells treated with either MO^Control or MO^Nodal (n=10). […] (D) The ratio of tumor cell proliferation to apoptosis for C8161 and MDA-MB-231 derived tumors, determined by immunohistochemical staining for Ki67 and terminal deoxynucleotidyl transferase biotin-dUTP nick-end labeling (TUNEL). Prior to injection into a mouse, C8161 and MDA-MB-231 cells were cultured for 3 days on control or hESC conditioned (H9 CMTX) matrices, or treated with MO^Nodal to knock down Nodal expression. […] (E) Immunohistochemical analysis of Ki67 expression (red/brown) and TUNEL staining in orthotopic melanoma (C8161) and breast carcinoma (MDA-MB-231) tumors. […] Proliferation is indicated by Ki67 staining and apoptotic nuclei were detected with confocal microscopy as red staining localized to the nuclei of apoptotic C8161 or MDA-MB-231 cells. […]
(§2) In order to establish a mechanism by which exposure to the hESC microenvironment abrogates tumorigenicity, the effects of this treatment on the in vivo tumor cell proliferation-to-apoptosis ratio were analyzed. […]

In another data set the test system is C8161 melanoma cells. Kind of data set: In vivo tumor cell proliferation-to-apoptosis ratio (Ki67/TUNEL), C8161 derived tumors. The following applies: C8161 treated before injection into mouse.
Text: as §1, §2

The test system of a further data set is Nodal. The data set is described as follows: Immunohistochemical analysis of Nodal staining in orthotopic C8161 tumors. The format is in vivo, mouse. The following applies: tumors from C8161 treated with anti-Nodal Morpholino, day 17.
In the next data set the test system is C8161 cells. The data set is described as follows: Soft agar / anchorage independent growth assay, C8161 cells. Format: cell-based, human. Particulars: C8161 treated with anti-Nodal Morpholino. How it is done: An in vitro colony forming assay was used to analyze colony-forming ability of poorly aggressive C81-61 cells, aggressive C8161 cells, C8161 cells treated with MO^Nodal and C8161 cells treated with MO^Nodal and rescued with recombinant Nodal (100 ng/mL). The assay was conducted using 50,000 cells suspended in 0.35% agarose in RPMI containing 10% serum, which were plated into 6-well dishes on 0.5% agar in the same medium. Colonies grew, and pictures were taken at day 7. After 2 weeks, colonies were stained with Crystal Violet and counted.
The derivation and phenotypic characteristics of the human melanoma cell lines have been previously described. Seftor, et. al., 2002, Clin. Experim. Metastas. 19:233-246; Seftor, et. al., 2005 Cancer Res. 65:10164-10169. The melanoma cell lines are maintained in RPMI 1640 medium (Invitrogen) supplemented with 10% fetal bovine serum (FBS, Gemini Bioproducts) and 0.1% gentamycin sulfate with the exception of C81-61 cells which are maintained in Ham's FIO medium supplemented with 15% FBS, 1X Mito+ (BD Bioscience) and gentamycin sulfate. Normal human melanocytes are purchased (Cascade Biologics) or isolated from neonatal foreskins. Seftor, et. al., 2005. A single cell suspension is prepared, added to plastic flasks for the adherence of melanocytes and the cells propagated in Medium 254 with Human Melanocyte Growth Supplement (Cascade Biologics) including, 100 units/ml penicillin, 100 μg/ml streptomycin, and 250 ng/mL amphotericin B. The human embryonic stem cell lines are cultured as previously described. Thomson, et. al., 1998, Science 282:1145-1147. Briefly, cells are grown in 6-well plates precoated with 0.1% porcine gelatin and containing 1.9×10^5 irradiated mouse embryonic fibroblasts (strain CF-1; ATCC) per well. The cells are maintained in medium containing DMEM/F12 (1:1), 20% knock-out serum replacement, non-essential minimal amino acids, L-glutamine (Invitrogen), […], and 4 ng/ml FGF-2 (R&D Systems), and are split with collagenase (1 mg/ml) before the colonies begin to overlap. The cultures are determined to be free of mycoplasma contamination using a PCR-based assay (Roche). The normal human neonatal epidermal melanocytes (HEMn-LP; Cascade Biologics, Portland Oreg.), myoepithelial cells (Hs 578 Bst; American Type Culture Collection (ATCC), Manassas, Va.) and primary mammary epithelial cells (HMEpC; Cell Applications Inc., San Diego Calif.) were maintained as per distributor instructions. Live umbilical cord blood stem cells (SC00125; New Jersey Stem Cell Resource at Coriell Institute for Medical Research) amniotic fluid derived stem cells (GM00473, GM00957A) and adult bone marrow derived mesenchymal stem cells (Stem Cell Technologies, Vancouver BC, Canada) were maintained under the recommended conditions. The HTR-8/SVneo is a well characterized immortalized human extravillous cytotrophoblast cell line, and was maintained as previously described Graham et al., 1993, Exp. Cell Res. 206:204-211. […] The expression vector for wild type Nodal was kindly provided by Dr. Daniel Constam (Swiss Institute for Experimental Cancer Research (ISREC), Epalinges, Switzerland) and was transfected into C81-61 cells as previously described. Le Good et al., 2005, Curr. Biol. 15:31-36. […]

“MO^Nodal: FITC-conjugated anti-sense Morpholino to Nodal, 5′-AAGCAGCACCTCCAGCCCTTATATC-3′ [SEQ ID NO: 20] (all phosphorodiamidate morpholino (PMO); FITC conjugated, position not given here)”: the “ratio of proliferation to apoptosis” value (in data set [1]; in the data set with C8161 melanoma cells) was “decreased” in each case. Moreover, in the data set on Nodal, the “Nodal expression in tumors (IHC)” value is “started to regain Nodal expression”. Further, the “reduction of colony formation” value in the data set with C8161 cells (after 2 weeks, n=16, p<0.001) is listed as 57%. Also, the “ability to undergo anchorage-independent growth” value in the data set with C8161 cells (soft agar) was “significantly diminished”.

(Values after patent US8106004B2, “Methods of inhibiting tumor cell aggressiveness using the microenvironment of human embryonic stem cells” (Children's Memorial Hospital, priority 2006, dated 2012).)
